The values below come from US20180133190A1, “MONOACYLGLYCEROLS AND FAT-SOLUBLE NUTRIENTS FOR USE IN THE TREATMENT OF NUTRIENT DEFICIENCY FROM MALDIGESTION” (NESTEC S.A., priority 2013, published 2018).

Series [1] in a line: lipid maldigestion or malabsorption rat model (XENICAL-induced): EPA level in red blood cell lipids. It is filed as in vivo, rats. How it is done: The concept was tested in a lipid maldigestion or malabsorption rat model. The maldigestion or malabsorption condition was obtained using XENICAL® (ORLISTAT), a pancreatic and gastric lipases inhibitor (tetrahydrolipstatin; see FIG. 7). Rats were fed during 21 days with long-chain polyunsaturated fatty acid (LC-PUFA) supplements containing mainly eicosapentaenoic (EPA) acid. Fish oil was used as a source of triacylglycerols, and different EPA glycerides were evaluated. XENICAL® (ORLISTAT) was given at a level sufficient to decrease lipid absorption by 40%. A group receiving fish oil without XENICAL® (ORLISTAT) was used as a positive control. At different time intervals (D3, D7, […]), the fatty acid profiles of red blood cell and plasma lipids were determined. At the end of the experiment, the fatty acid profiles of different tissues were determined. The main objective was to follow the level of EPA in red blood cell and plasma lipids. The main comparison evaluated was the difference in EPA level between the group receiving EPA-containing sn-1(3) MAG in combination with XENICAL® (ORLISTAT) and the positive control group (fish oil+XENICAL® (ORLISTAT)). […] This comparison corroborates the validity of the model.

A short description of series [2]: clinical study: delivery of EPA under lipid maldigestion conditions induced by XENICAL (ORLISTAT). Type of series: in vivo, humans. The procedure:
This clinical study compared the efficacy of sn-1(3) MAG and fish oil (TAG) in delivering EPA in humans under lipid maldigestion conditions induced by XENICAL® (ORLISTAT). The comparison was tested in volunteers having a BMI of 37-40 kg/m2 and treated with XENICAL® (ORLISTAT) to induce lipid maldigestion or not treated with XENICAL® (ORLISTAT). The primary objective was to assess accretion of EPA in erythrocytes over 21 days when consumed as fish oil (TAG) or sn-1(3) MAG. The secondary objectives were to assess accretion of EPA in plasma over 21 days and also to assess the pharmacokinetics of EPA after an acute dose either in the form of sn-1(3) MAG or TAG (AUC in chylomicrons over 10 hours postprandial).

SMILES strings stand for the structures.

As to `CCCCCCCCCCC[C@@H](C[C@@H]1OC(=O)[C@H]1CCCCCC)OC(=O)[C@H](CC(C)C)NC=O` [XENICAL® (ORLISTAT), tetrahydrolipstatin, reference compound], the “EPA incorporation in red blood cells, effect of lipase inhibitor” value in series [1] (rats fed fish oil with vs without XENICAL (ORLISTAT), day 7, FIG. 2) was “decreases EPA incorporation in red blood cells”.
Take `CC/C=C\C/C=C\C/C=C\C/C=C\C/C=C\CCCC(=O)OCC(O)CO` (stereo not shown) [sn-1(3) MAG that contained EPA, sn-1(3)-monoeicosapentaenoylglycerol]: in series [2] (humans, with XENICAL (ORLISTAT), in comparison to fish oil and XENICAL, p=0.0001, FIG. 5), the “chronic effect: accretion of EPA in erythrocytes after 21 days” value is on record as “statistically significant”. Besides, in series [2] (humans, with XENICAL (ORLISTAT), relative to fish oil and XENICAL, p=0.0003, FIG. 6), the “chronic effect: accretion of EPA in plasma after 21 days” value is “statistically significant”. Besides, the “carrier for EPA compared with fish oil (TAG)” value in series [2] (obese subjects treated with XENICAL (ORLISTAT)) is “better carrier for EPA than fish oil (TAG)”. Also, in series [1] (rats, conditions of lipid maldigestion or malabsorption), the “incorporation of LC-PUFAs in tissue” value is “the incorporation in tissue is improved”. For the same compound, in series [1] (rats, with XENICAL (ORLISTAT), day 7, FIG. 2), the “level of EPA incorporated in red blood cells vs fish oil group (without XENICAL)” value was “even higher than the fish oil group”. Also, the “level of EPA incorporated in red blood cells vs fish oil + XENICAL (ORLISTAT) group” value in series [1] (rats, with XENICAL (ORLISTAT), day 7, all P values lower than 0.05, FIG. 2) is “statistically higher”.
